Laboratory results taken from patent publication US9951065B2 (Gilead Sciences, Inc., priority 2015, dated 2018).

These compounds were tested against T1, IDO1 (Homo sapiens, UniProt P14902) (assay: Cell-based (HeLa) assay for measurement of IDO1 inhibition (kynurenine levels in supernatant after IFNγ induction)). Settings: HeLa cells, IFNγ-induced IDO1, kynurenine in supernatant after 48 hour incubation; geometric mean of a minimum of four determinations.
T1 construct: HeLa cells were treated with a test compound in the presence of IFNγ, which induces IDO1 expression; host or cells: H1-HeLa cells, IDO1 induced with IFNγ
Method: Example 509. Cell-Based (HeLa) Assay for Measurement of IDOL Inhibition
To measure IDO1 inhibition in tissue culture, HeLa cells were treated with a test compound in the presence of IFNγ, which induces IDO1 expression. Following incubation, cell supernatants were assayed for kynurenine levels, an indicator of IDO1 activity.
H1-HeLa cells (ATCC #CRL-1958) were seeded in 384-well plates (Greiner #82051-282) at a volume of 50 μL/well in DMEM (Corning #15-018-CM) supplemented with 10% FBS (Corning #35-011-CV) and 1% P/S/G (Corning #30-009-CL) at a density of 1,250 cells/well and incubated overnight at 37° C., 5% CO2/100% humidity. The following day, the test compounds were added in DMSO (0.5% final) at various concentrations, and IDO1 was inducibly expressed by the addition of 50 uL/well of […] of INFγ (Peprotech #300-02) in cell plating media. As a […] control, 50 uL of the cell plating media without IFNγ was added to several wells. Following a 48 hour incubation, the plates were spun down at 1,200 RPM for 5 min at 10° C. 65 μL/well of the supernatant was then transferred to new 384-well plates (Thermo #262160) that contained 10 uL/well of 30% TCA (Sigma #TO699), and the plates were sealed and incubated at 60° C. for 30 min. The plates were then centrifuged for 15 min at 2,000 RPM at 10° C. 40 μL/well of the supernatant was transferred to new 384-well plates (Thermo #262160) and was reacted with 40 μL/well of 2% (w/v) p-dimethlyaminobenzaldehyde (Sigma #156417) in glacial acetic acid (Sigma #A6283). The reaction was incubated at room temperature for 10 min and absorbance at 480 nm was read using a PerkinElmer Envision plate reader.
Data in Table 1 were normalized based on positive (−IFNγ) and negative (+IFNγ) controls and EC50 values were calculated from the fit of the dose response curves to a four-parameter equation. All EC50 values represent geometric mean values of a minimum of four determinations. These assays generally produced results within 2-fold of the reported mean.

T1 sequence (P14902 whole entry): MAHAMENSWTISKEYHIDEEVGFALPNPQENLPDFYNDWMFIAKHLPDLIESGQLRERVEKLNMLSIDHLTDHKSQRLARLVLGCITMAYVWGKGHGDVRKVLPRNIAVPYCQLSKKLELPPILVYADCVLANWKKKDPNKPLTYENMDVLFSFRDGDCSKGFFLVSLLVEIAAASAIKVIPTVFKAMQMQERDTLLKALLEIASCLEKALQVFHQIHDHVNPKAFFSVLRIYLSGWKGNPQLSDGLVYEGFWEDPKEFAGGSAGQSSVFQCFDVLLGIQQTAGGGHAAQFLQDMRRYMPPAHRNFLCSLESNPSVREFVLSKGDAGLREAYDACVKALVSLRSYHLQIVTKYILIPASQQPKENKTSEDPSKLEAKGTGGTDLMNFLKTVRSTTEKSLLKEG

Structure (SMILES)	EC50
CS(=O)(=O)CCNc1nc2c(F)ccc(/C(=N/O)Nc3ccc(F)c(Cl)c3)c2[nH]1 [Example 33, N-(3-Chloro-4-fluorophenyl)-4-fluoro-N′-hydroxy-2-((2-(methylsulfonyl)ethyl)amino)-1H-benzo[d]imidazole-7-carboximidamide]	1830 nM
O/N=C(\Nc1ccc(F)c(Cl)c1)c1ccc(F)c2nc(NCCN3CCOCC3)[nH]c12 [Example 34, N-(3-Chloro-4-fluorophenyl)-4-fluoro-N′-hydroxy-2-((2-morpholinoethyl)amino)-1H-benzo[d]imidazole-7-carboximidamide]	6740 nM
CS(=O)(=O)CCNc1nc2c(F)c(F)cc(/C(=N/O)Nc3ccc(F)c(Cl)c3)c2[nH]1 [Example 35, N-(3-Chloro-4-fluorophenyl)-4,5-difluoro-N′-hydroxy-2-((2-(methylsulfonyl)ethyl)amino)-1H-benzo[d]imidazole-7-carboximidamide]	2150 nM
O/N=C(\Nc1ccc(F)c(Cl)c1)c1cc(F)c(F)c2nc(NCCN3CCC(F)(F)CC3)[nH]c12 [Example 36, N-(3-Chloro-4-fluorophenyl)-2-((2-(4,4-difluoropiperidin-1-yl)ethyl)amino)-4,5-difluoro-N′-hydroxy-1H-benzo[d]imidazole-7-carboximidamide]	712 nM
CC(CN1CCOCC1)Nc1nc2c(F)c(F)cc(/C(=N/O)Nc3ccc(F)c(Cl)c3)c2[nH]1 (stereo not shown) [Example 37, N-(3-Chloro-4-fluorophenyl)-4,5-difluoro-N′-hydroxy-2-((1-morpholinopropan-2-yl)amino)-1H-benzo[d]imidazole-7-carboximidamide]	514 nM
CNc1nc2c(F)c(F)cc(/C(=N/O)Nc3ccc(F)c(Cl)c3)c2[nH]1 [Example 38, N-(3-Chloro-4-fluorophenyl)-4,5-difluoro-N′-hydroxy-2-(methylamino)-1H-benzo[d]imidazole-7-carboximidamide]	607 nM
CN(C)CCCNc1nc2c(F)c(F)cc(/C(=N/O)Nc3ccc(F)c(Cl)c3)c2[nH]1 [Example 39, N-(3-Chloro-4-fluorophenyl)-2-((3-(dimethylamino)propyl)amino)-4,5-difluoro-N′-hydroxy-1H-benzo[d]imidazole-7-carboximidamide]	473 nM
COCCNc1nc2c(F)c(F)cc(/C(=N/O)Nc3ccc(F)c(Cl)c3)c2[nH]1 [Example 40, N-(3-Chloro-4-fluorophenyl)-4,5-difluoro-N′-hydroxy-2-((2-methoxyethyl)amino)-1H-benzo[d]imidazole-7-carboximidamide]	1520 nM
O/N=C(\Nc1ccc(F)c(Cl)c1)c1cc(F)c(F)c2nc(NCCN3CCCC3)[nH]c12 [Example 41, N-(3-Chloro-4-fluorophenyl)-4,5-difluoro-N′-hydroxy-2-((2-(pyrrolidin-1-yl)ethyl)amino)-1H-benzo[d]imidazole-7-carboximidamide]	240 nM
CCN(CC)CCNc1nc2c(F)c(F)cc(/C(=N/O)Nc3ccc(F)c(Cl)c3)c2[nH]1 [Example 42, N-(3-Chloro-4-fluorophenyl)-2-((2-(diethylamino)ethyl)amino)-4,5-difluoro-N′-hydroxy-1H-benzo[d]imidazole-7-carboximidamide]	247 nM
CN(C)CCNc1nc2c(F)c(F)cc(/C(=N/O)Nc3ccc(F)c(Cl)c3)c2[nH]1 [Example 43, N-(3-Chloro-4-fluorophenyl)-2-((2-(dimethylamino)ethyl)amino)-4,5-difluoro-N′-hydroxy-1H-benzo[d]imidazole-7-carboximidamide]	136 nM
CN1CCCC(c2nc3c(F)c(F)cc(/C(=N/O)Nc4cccc(Cl)c4)c3[nH]2)C1 (stereo not shown) [Example 44, N-(3-Chlorophenyl)-4,5-difluoro-N′-hydroxy-2-(1-methylpiperidin-3-yl)-1H-benzo[d]imidazole-7-carboximidamide]	1650 nM
COCCCNCc1nc2c(/C(=N/O)Nc3ccc(F)c(Cl)c3)cc(F)c(F)c2[nH]1 [Example 45, N-(3-Chloro-4-fluorophenyl)-6,7-difluoro-N′-hydroxy-2-(((3-methoxypropyl)amino)methyl)-1H-benzo[d]imidazole-4-carboximidamide]	1320 nM
OCc1nc2c(/C(=N/O)Nc3ccc(F)c(Cl)c3)cc(F)c(F)c2[nH]1 [Example 46, N-(3-Chloro-4-fluorophenyl)-4,5-difluoro-N′-hydroxy-2-(hydroxymethyl)-1H-benzo[d]imidazole-7-carboximidamide]	835 nM
NCc1nc2c(/C(=N/O)Nc3ccc(F)c(Cl)c3)cc(F)c(F)c2[nH]1 [Example 47, 2-(Aminomethyl)-N-(3-chloro-4-fluorophenyl)-4,5-difluoro-N′-hydroxy-1H-benzo[d]imidazole-7-carboximidamide]	1080 nM
CNCc1nc2c(/C(=N/O)Nc3ccc(F)c(Cl)c3)cc(F)c(F)c2[nH]1 [Example 48, N-(3-Chloro-4-fluorophenyl)-4,5-difluoro-N′-hydroxy-2-((methylamino)methyl)-1H-benzo[d]imidazole-7-carboximidamide]	434 nM
O/N=C(\Nc1ccc(F)c(Cl)c1)c1cc(F)c(F)c2[nH]c(CNCC3CC3)nc12 [Example 49, N-(3-Chloro-4-fluorophenyl)-2-(((cyclopropylmethyl)amino)methyl)-4,5-difluoro-N′-hydroxy-1H-benzo[d]imidazole-7-carboximidamide]	1060 nM
CCNCc1nc2c(/C(=N/O)Nc3ccc(F)c(Cl)c3)cc(F)c(F)c2[nH]1 [Example 50, N-(3-Chloro-4-fluorophenyl)-2-((ethylamino)methyl)-6,7-difluoro-N′-hydroxy-1H-benzo[d]imidazole-4-carboximidamide]	457 nM
CC(C)NCc1nc2c(/C(=N/O)Nc3ccc(F)c(Cl)c3)cc(F)c(F)c2[nH]1 [Example 51, N-(3-Chloro-4-fluorophenyl)-6,7-difluoro-N′-hydroxy-2-((isopropylamino)methyl)-1H-benzo[d]imidazole-4-carboximidamide]	566 nM
CN(C)Cc1nc2c(/C(=N/O)Nc3ccc(F)c(Cl)c3)cc(F)c(F)c2[nH]1 [Example 52, N-(3-Chloro-4-fluorophenyl)-2-((dimethylamino)methyl)-6,7-difluoro-N′-hydroxy-4H-benzo[d]imidazole-4-carboximidamide]	526 nM
CN(C)CCc1nc2c(/C(=N/O)Nc3ccc(F)c(Cl)c3)cc(F)c(F)c2[nH]1 [Example 53, N-(3-Chloro-4-fluorophenyl)-2-(2-(dimethylamino)ethyl)-6,7-difluoro-N′-hydroxy-1H-benzo[d]imidazole-4-carboximidamide]	916 nM
CN(C)CCc1nc2c(/C(=N/O)Nc3ccc(F)c(Br)c3)cc(F)c(F)c2[nH]1 [Example 54, N-(3-Bromo-4-fluorophenyl)-2-(2-(dimethylamino)ethyl)-6,7-difluoro-N′-hydroxy-1H-benzo[d]imidazole-4-carboximidamide]	461 nM
CN(C)CCc1nc2c(/C(=N/O)Nc3cccc(Br)c3)cc(F)c(F)c2[nH]1 [Example 55, N-(3-Bromophenyl)-2-(2-(dimethylamino)ethyl)-6,7-difluoro-N′-hydroxy-1H-benzo[d]imidazole-4-carboximidamide]	379 nM
CN(C)CCc1nc2c(/C(=N/O)Nc3cccc(Cl)c3)cc(F)c(F)c2[nH]1 [Example 56, N-(3-Chlorophenyl)-2-(2-(dimethylamino)ethyl)-6,7-difluoro-N′-hydroxy-1H-benzo[d]imidazole-4-carboximidamide]	562 nM
CNCCc1nc2c(/C(=N/O)Nc3ccc(F)c(Cl)c3)cc(F)c(F)c2[nH]1 [Example 57, N-(3-Chloro-4-fluorophenyl)-6,7-difluoro-N′-hydroxy-2-(2-(methylamino)ethyl)-1H-benzo[d]imidazole-4-carboximidamide]	1090 nM
CCN(CC)CCc1nc2c(F)c(F)cc(/C(=N/O)Nc3ccc(F)c(Cl)c3)c2[nH]1 [Example 58, N-(3-Chloro-4-fluorophenyl)-2-(2-(diethylamino)ethyl)-4,5-difluoro-N′-hydroxy-1H-benzo[d]imidazole-7-carboximidamide]	786 nM
O/N=C(\Nc1ccc(F)c(Cl)c1)c1ccnc2nc[nH]c12 [Example 59, N-(3-Chloro-4-fluorophenyl)-N′-hydroxy-1H-imidazo[4,5-b]pyridine-7-carboximidamide]	208 nM
O/N=C(\Nc1cc(Cl)ccc1F)c1ccnc2nc[nH]c12 [Example 60, N-(5-Chloro-2-fluorophenyl)-N′-hydroxy-1H-imidazo[4,5-b]pyridine-7-carboximidamide]	322 nM
